pIC50, pKi: −log10 of the molar value. Like-named read-outs stand apart in the source and are kept apart here.
Tests used:
[1] = tested on: H3K9AC (HT1080 cells); experiment: H3K9AC Sandwich ELISA Assay in HT1080 cells (KAT2A primary cell-based screening assay); design: species or system Human
Method in brief: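 Acetylated H3K9 quantified by luminescent sandwich ELISA (total H3 capture, H3K9ac detection) on HCl lysates of HT1080 cells. Cells had 24 h compound exposure at 37 °C, top concentration 10 µM, 10-point 3-fold series, 0.1% DMSO; IC50 from four-parameter fitting.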

[2] = tested on: MM.1S cells; experiment: MM1.S 10 Day Proliferation Assay (CellTiter-Glo); format: cell-based, Human
Method: Human B lymphoblast cell line MM.1S was obtained from American Type Culture Collection (ATCC), Manassas, VA USA, Cat. MM.1S (ATCC® CRL-2974™). Cells were cultured in RPMI (Thermo Fisher Scientific/Gibco Life Technologies Cat. #111875-093) plus 10% (v/v) FBS (Thermo Fisher Scientific/Gibco Life Technologies Cat. #26140-079) and 1% Penicillin-Streptomycin (Thermo Fisher Scientific/Gibco Life Technologies Cat. #15070063) at 37° C. in 5% CO2.
MM1.S cells were trypsinized cell viability count performed, and cells suspended in complete media at 5,556 cells/ml. Cells were then seeded (90 μl/well) into a 96-well round black/clear bottom, ULA (Ultra-Low Attachment surface plate (Corning cat #4520) at a density of 500 cells/well. Cells were then incubated for 16 hours at 37° C. and 5% CO2. Compound dilution plates were prepared in 96-well, clear U-bottom, polypropylene plates (Corning 3365) in 100% DMSO at 10 mM stock concentration in duplicate wells, using a 10-point serial dilution (1:3 dilutions). Compounds were diluted to 1:100 in growth medium. Then 10 μl of diluted compounds were added to each well of the cell plates using a Beckman FX liquid handling system such that the highest compound concentration tested was 10 μM final, with a 0.1% final DMSO concentration in the total volume of 100 μl. Plates were incubated for 10 total days at 37° C. and 5% CO2. Fresh media containing compound was refreshed at 5 days treatment.
Finally, the treatment plates were removed from the incubator and 100 μl of CellTiter-Glo Luminescent reagent was added to each well, and plates were equilibrated in the dark for 30 minutes. Plates were read on the PHERAstar plate reader using the 96-well with Luminescent reading mode. IC50 values were calculated using a four-parameter fit with GraphPad Prism version 9.5.1 or in house modified IDBS ActivityBase data analyzing package.

[3] = biological target: KAT2A (Homo sapiens (Human), UniProt Q92830); experiment: KAT2A acetyltransferase biochemical assay (RapidFire mass spectrometry, AcCoA to CoA); conditions: read-out: KAT2A Ki at 1 μM AcCoA, 5 μM H3 1-21 peptide, 0.5 nM KAT2A, 90-minute reaction
Method: • A) Compound preparation • 1) Prepare 10 mM stock solutions in 100% DMSO from solid material. • 2) Serial dilute 10 mM, 1 mM, 0.1 or 0.01 mM compound stocks 3-fold in 100% DMSO for 11-point dose response. • B) Reagent preparation • 1) Prepare 1×assay buffer containing 40 mM bis tris propane pH 8.0, 10 mM NaCl, 0.5 mM EDTA, and 0.002% Tween-20. • 2) Dilute Histone peptide (CPC Scientific) and KAT enzyme together in assay buffer to 1.25×. • 3) Dilute AcCoA (Sigma) in assay buffer to 5×. • C) Enzyme reaction • 1) Final reaction conditions for each KAT assay in a 100ul assay reaction volume: • i) KAT2A 0.5 nM, 1 uM AcCoA, 5 uM H3 1-21 peptide, 90-minute reaction • ii) KAT2B 0.5 nM, 1 uM AcCoA, 5 uM H3 1-21 peptide, 90-minute reaction • 2) Add 2 ul of diluted compound series to the assay plate (96-well round-bottom polypropylene plates) or 2 ul of DMSO for control wells. • 3) Add 11 μL of 10% formic acid to 100% effect (HPE) control wells. • 4) Add 80 ul of 1.25× Histone peptide/KAT mix to the assay plate via Multidrop Combi (ThermoFisher). Incubate 15 min at room temperature. • 5) Add 20 ul of 5× AcCoA to the assay plate via Multidrop Combi. • 6) Stop the reaction after the indicated time with the addition of 11 ul of 10% formic acid via Multidrop Combi. • 7) Each reaction was analyzed using Rapid Fire mass spectrometry platform.
KAT enzymes were expressed using a baculovirus expression system and purified at Pfizer, La Jolla. […] Acetyl coenzyme A was purchased from Sigma-Aldrich (St. Louis, MO). All other biochemical reagents were purchased from Sigma-Aldrich or ThermoFisher Scientific (Waltham, MA).
KAT assays were performed at room temperature in assay buffer containing 1 μM AcCoA, 5 μM histone peptide, 40 mM bis tris propane pH 8.0, 10 mM NaCl, 0.5 mM EDTA 0.002% Tween-20. 80 ul of 1.25× Histone peptide/enzyme mix was added to a 96-well round-bottom polypropylene assay plate containing 2 ul of serially diluted test compound in 100% dimethyl sulfoxide (DMSO). To start the reaction, 20 ul of 5× AcCoA solution was added to the assay plate. KAT assays were terminated after 90 minutes with the addition of 11 ul of 10% formic acid. All assays used histone H3 (1-21) peptide. The final enzyme concentration for each KAT was as follows: KAT2A, 0.5 nM; KAT2B, 0.5 nM. […] Each reaction was analyzed using Rapid Fire mass spectrometry platform. This methodology leverages an Agilent 6495 triple quadrupole (QQQ) mass spectrometer coupled to a RapidFire model 365 to specifically capture and measure KAT2 acetyltransferase activity, converting AcCoA (substrate) to CoA (product).
Area under the curve (AUC) for both substrate and product peaks was determined for KAT2 at M.W. 809.6 [Substrate+H]+ and 767.3 [Product+H]+ with a +/−1 Da tolerance, respectively. Acetyltransferase activity (% of DMSO control) was calculated by: ((AUCProduct/AUCsubstrate)-AUCHPE)/(AUCZPE-AUCHPE))*100. Ki values were determined by fitting the % acetyltransferase activity at each inhibitor concentration to the Morrison equation for tightbinding competitive inhibitors using Pfizer proprietary curve fitting software.
To determine the inhibition of KAT enzymatic activity by test compounds, assay reactions were conducted in a volume of 100 μL in 96-well round-bottom polypropylene assay plate. The reactions were performed in assay buffer (40 mM bis tris propane, pH 8, 10 mM NaCl, 0.5 mM EDTA, 0.002% Tween-20).

[4] = Homo sapiens, HT-1080, H3K9AC sandwich ELISA

Chain of KAT2A (Q92830 whole entry): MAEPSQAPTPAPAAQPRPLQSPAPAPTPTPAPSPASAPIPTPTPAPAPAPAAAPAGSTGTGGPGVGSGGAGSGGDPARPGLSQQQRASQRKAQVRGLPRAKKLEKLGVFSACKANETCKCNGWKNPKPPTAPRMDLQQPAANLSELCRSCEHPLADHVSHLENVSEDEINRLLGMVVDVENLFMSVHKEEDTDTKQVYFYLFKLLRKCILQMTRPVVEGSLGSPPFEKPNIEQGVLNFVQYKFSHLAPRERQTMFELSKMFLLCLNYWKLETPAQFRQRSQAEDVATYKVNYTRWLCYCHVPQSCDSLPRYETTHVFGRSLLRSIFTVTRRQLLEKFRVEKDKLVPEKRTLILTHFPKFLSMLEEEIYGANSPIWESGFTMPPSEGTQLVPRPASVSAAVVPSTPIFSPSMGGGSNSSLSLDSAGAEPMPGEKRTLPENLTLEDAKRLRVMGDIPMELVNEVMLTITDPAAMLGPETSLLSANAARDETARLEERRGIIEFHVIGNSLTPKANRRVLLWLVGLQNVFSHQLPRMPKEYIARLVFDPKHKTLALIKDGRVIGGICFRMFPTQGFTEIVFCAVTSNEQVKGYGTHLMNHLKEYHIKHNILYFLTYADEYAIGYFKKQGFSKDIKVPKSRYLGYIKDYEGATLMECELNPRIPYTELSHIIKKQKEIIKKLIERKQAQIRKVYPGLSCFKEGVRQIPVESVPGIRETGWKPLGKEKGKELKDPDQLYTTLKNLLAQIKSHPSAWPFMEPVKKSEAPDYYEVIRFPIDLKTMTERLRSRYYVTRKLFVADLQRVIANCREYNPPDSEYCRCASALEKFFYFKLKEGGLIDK

A pIC50 ([1]; H3K9AC sandwich ELISA) of 8.03, a pIC50 [2] of 6.73 and a pKi [3] of 8.60 were found for `C[C@H](C(=O)O)c1ccc(O[C@@H]2CC[C@@H](NC(=O)[C@@]3(F)CNC4(CCC4)C3)C2)c(-c2cccc(F)c2C2CCC2)c1` (single isomer, unassigned) [Example A20] in this work.
A pIC50 [1, 4] of 8.19, a pIC50 ([2]; Homo sapiens, MM1.S, 240 h) of 7.53 and a pKi [3] of 9.46 were found for `CC(C)c1ccccc1-c1cc(C(=O)O)ccc1O[C@@H]1CC[C@@H](NC(=O)[C@@]2(F)CNC3(CCC3)C2)C1` [Example A39, 6-{[(1R,3R)-3-{[(7S)-7-fluoro-5-azaspiro[3.4]octane-7-carbonyl]amino}cyclopentyl]oxy}-2′-(propan-2-yl)[1,1′-biphenyl]-3-carboxylic acid] in this work.
A pIC50 ([1]; H3K9AC sandwich ELISA) of 7.63, a pIC50 ([2]; Homo sapiens, MM1.S, 240 h) of 6.60 and a pKi [3] of 7.62 were found for `CN1CC(C)(C)C[C@H]1C(=O)N[C@@H]1CC[C@@H](Oc2cccc(CC(=O)NS(C)(=O)=O)c2-c2ccccc2C2CCC2)C1` (atropisomer, axis not shown) [Example I4, N-[(1R,3R)-3-{[(1ψ)-2′-cyclobutyl-6-{2-[(methanesulfonyl)amino]-2-oxoethyl}[1,1′-biphenyl]-2-yl]oxy}cyclopentyl]-1,4,4-trimethyl-L-prolinamide] in this work.
A pIC50 ([1]; H3K9AC sandwich ELISA) of 8.08, a pIC50 [2] of 7.43 and a pKi [3] of 9.39 were found for `CCc1c(F)cccc1-c1cc(C(=O)O)ccc1O[C@@H]1CC[C@@H](NC(=O)[C@@]2(F)CNC3(CCCC3)C2)C1` (single isomer, unassigned) [Example A42] in this work.
A pIC50 [1, 4] of 8.51, a pIC50 ([2]; Homo sapiens, MM1.S, 240 h) of 8.08 and a pKi [3] of 10.40 were found for `CC(C)(C(=O)NS(=O)(=O)C1(C)CC1)c1ccc(O[C@@H]2CC[C@@H](NC(=O)[C@@]3(F)CNC4(CCC4)C3)C2)c(-c2cccc(F)c2C2CCC2)c1` (single isomer, unassigned) [Example B34] in this work.
A pIC50 [1, 4] of 9.22, a pIC50 ([2]; Homo sapiens, MM1.S, 240 h) of 8.89 and a pKi [3] of 10.40 were found for `CC1(S(=O)(=O)NC(=O)Cc2ccc(O[C@@H]3CC[C@@H](NC(=O)[C@@]4(F)CNC5(CCC5)C4)C3)c(-c3cccc(F)c3C3CCC3)c2)CC1` [Example B35, (7ξ)-N-[(1R,3R)-3-({2′-cyclobutyl-3′-fluoro-5-[2-(1-methylcyclopropane-1-sulfonamido)-2-oxoethyl][1,1′-biphenyl]-2-yl}oxy)cyclopentyl]-7-fluoro-5-azaspiro[3.4]octane-7-carboxamide] in this work.
A pIC50 [1, 4] of 8.32, a pIC50 ([2]; Homo sapiens, MM1.S, 240 h) of 7.92 and a pKi [3] of 9.51 were found for `[2H]C([2H])([2H])N1CC(C)(C)C[C@H]1C(=O)N[C@@H]1CC[C@@H](Oc2ccc(C(C)(C)C(=O)NS(C)(=O)=O)cc2-c2cccc(F)c2C2CCC2)C1` [Example E5] in this work.
A pIC50 [1, 4] of 8.00, a pIC50 ([2]; Homo sapiens, MM1.S, 240 h) of 7.87 and a pKi [3] of 10.05 were found for `CC(C)(C(=O)NS(=O)(=O)N1CC(F)C1)c1ccc(O[C@@H]2CC[C@@H](NC(=O)[C@@]3(F)CNC4(CCC4)C3)C2)c(-c2cccc(F)c2C2CCC2)c1` (single isomer, unassigned) [Example B5] in this work.
A pIC50 [1, 4] of 7.67, a pIC50 ([2]; Homo sapiens, MM1.S, 240 h) of 6.90 and a pKi [3] of 7.58 were found for `CCc1c(F)cccc1-c1cc(C(C)(C)C(=O)NS(C)(=O)=O)ccc1O[C@@H]1CC[C@@H](NC(=O)[C@@H]2CC(C)(C)CN2C)C1` [Example E10, N-{(1R,3R)-3-[(2′-ethyl-3′-fluoro-5-{1-[(methanesulfonyl)amino]-2-methyl-1-oxopropan-2-yl}[1,1′-biphenyl]-2-yl)oxy]cyclopentyl}-1,4,4-trimethyl-L-prolinamide] in this work.
A pIC50 [1, 4] of 9.70, a pIC50 ([2]; Homo sapiens, MM1.S, 240 h) of 9.15 and a pKi [3] of 10.15 were found for `CC(C)c1ccccc1-c1cc(CC(=O)NS(=O)(=O)C2(C)CC2)ccc1O[C@@H]1CC[C@@H](NC(=O)[C@@]2(F)CNC3(CCCC3)C2)C1` (single isomer, unassigned) [Example C61] in this work.
A pIC50 [1, 4] of 7.47, a pIC50 ([2]; Homo sapiens, MM1.S, 240 h) of 6.70 and a pKi [3] of 7.58 were found for `CN1CC(C)(C)C[C@H]1C(=O)N[C@@H]1CC[C@@H](Oc2ccc(C(C)(C)C(=O)NS(C)(=O)=O)cc2-c2cccc(F)c2C2CC2)C1` [Example E7, N-{(1R,3R)-3-[(2′-cyclopropyl-3′-fluoro-5-{1-[(methanesulfonyl)amino]-2-methyl-1-oxopropan-2-yl}[1,1′-biphenyl]-2-yl)oxy]cyclopentyl}-1,4,4-trimethyl-L-prolinamide] in this work.
